Experimental data: patent US11613750B2, “Methods of reducing virus molecule levels” (priority 2019, dated 2023)

Tests used:
[1] = system: RPLP1 mRNA; assay: Target mRNA reduction by RT-qPCR in HepG2.2.15 cells; format: cell-based, human; details: 10 nM siRNA
Excerpt: (§1) The siRNAs identified as described in Example A6 should function by a mechanism that includes being loaded in the RISC complex to cleave the cognate mRNA, leading to the degradation of the mRNA. To examine whether the siRNAs are effective in reducing the target mRNA, we used reverse transcription coupled with quantitative polymerase chain reaction (RT-qPCR) to assess the level of the target mRNA in HepG2.2.15 cells. All 32 siRNAs described in Table 2 reduced the mRNA by more than 75% (Table 3).

[2] = system: HepG2.2.15 cells; assay: HepG2.2.15 cell viability, CellTiter-Glo; details: for CC50: read-out: CC50, HepG2.2.15 cell viability, highest concentration tested 80 nM
Experimental: (§2) Cell viability was assessed by ATP levels determined using the CellTiter-Glo reagent and the results normalized to the level in mock-treated cells. HBsAg levels were quantified using ELISA and the data normalized to the level in the mock-treated cells.
The effects on cell viability were quantified using the CellTiter-Glo reagent. All data were normalized to the amount of protein produced by mock-treated cells.
(§3) The library of siRNAs of Example A5 were tested for the reduction of HBsAg secreted by HepG2.2.15 cells and in HBV virions.

[3] = system: RPLP1 protein; assay: Target protein reduction by Western blot in HepG2.2.15 cells; format: cell-based, human; details: 10 nM siRNA, 72 h
Experimental: (§4) The host factors likely function in viral infection as proteins. Therefore, we determined whether the siRNAs could decrease the amounts of the target protein. Cell transfected with 10 nM of each siRNA for 72 h were lysed and the target proteins identified using Western blots probed with target-specific antibodies. The effective siRNAs described in Table 3 reduced the levels of the proteins by between 28 and 92% of the mock-treated samples. The reduction in the proteins is less than the reduction of the target mRNA, likely due to the proteins have prolonged half-life and that more time is needed for their degradation. […] We reason that this is due to RPLP1 and RPLP2 functioning as heterodimers such that a decrease of one protein increases the vulnerability of the other protein to degradation. Similar concomitant decrease of the proteins was reported by Campos et al. (17). Finally, the levels of two cellular proteins that are not targeted by the siRNAs, P54nrb and GAPDH, were unaffected.

[4] = system: HCoV-OC43; assay: OC43 virion RNA, Branched DNA assay, infected HCT8 cells; format: cell-based, human coronavirus OC43; details: for OC43 vRNA reduction siRNA and siGRP78: 10 nM siRNA along with 10 nM of siRNA targeting GRP78, HCT8 cells; for OC43 vRNA reduction: 10 nM siRNA, HCT8 cells
Experimental: The siRNAs were transfected in the HCT8 cells at a final concentration of 10 nM. A positive control for the inhibition of Coronavirus infection, Remdesivir (Rem), was used at 0.9 μM. The virion RNAs (vRNAs) were quantified using a Branched DNA assay specific for OC43 RNA.
The two siRNAs are those referred to by compound number (see Table 2) in the horizontal bar, along with siRNA targeting GRP78, siGRP78. A positive control for the inhibition of Coronavirus infection, Remdesivir (Rem), was used at 0.9 μM. The vRNAs were quantified using a Branched DNA assay specific for OC43 RNA.
The siRNAs listed in Table 2 were transfected into human colon epithelial HCT8 cells and the amount of OC43 virion produced was quantified. In these assays, the OC43 vRNA was quantified using a Branched DNA assay (QuantiGene gene expression assay: ThermoFisher). As a positive inhibitory control, the infected cells were treated with Remdesivir. […] Examples of the inhibition of OC43 vRNA are illustrated in FIG. 5A.
A combination of siRNAs targeting the host factor should more robustly reduce OC43 virion production. To illustrate this, HCT8 cells were transfected with 10 nM of siRNAs from Table 2 along with 10 nM of siRNA targeting GRP78. The virion RNAs produced were quantified using the Branched DNA assay. […] A combination of siRNAs targeting host factors GRP78, SRSF1, RPLP1 and RPLP2 can lead to significant reduction in the production of human Coronavirus virion RNA from infected cells.

[5] = system: HBsAg; details: HepG2.2.15 cells; for EC50: read-out: EC50, Extracell. HBsAg reduction
Experimental: as §2
The cellular proteins GRP78/BIP, SRSF1, HNRNPA2B1, RPLP1, and RPLP2 were identified as having roles in HBV replication and infection. Various siRNAs and combinations thereof targeting the RNAs encoding these proteins were contacted with HepG2.2.15 cells at a final concentration of 7.5 nM.
The EC50 values of several siRNAs and combinations of siRNAs targeting HNRNPA2B1, GRP78, RPLP1, RPLP2, and/or SRSF1 were determined with respect to the ability to reduce HBsAg levels in HepG2.2.15 cells.
(§5) The ability of siRNAs targeting host factors that then results in the reduced production of multiple HBV molecules was evaluated by quantifying the amount of HBsAg, HBeAg, and Core protein produced by HepG2.2.15 cells after contacting with 10 nM of siRNAs that target HNRNPA2B1, GRP78, RPLP1, RPLP2, and SRSF1. We also contacted the cells with 5 nM of each set of siRNAs that targets both RPLP1 and RPLP2. The level of HBsAg, HBeAg, and Core were all determined using ELISAs.
as §3

[6] = system: HBeAg; details: for HBeAg reduction HepG2.2.15 cells: 10 nM siRNA transfected into cells
Experimental: HBeAg in the cell culture media was assessed using ELISAs.
as §5, §3

[7] = system: RPLP2 mRNA; assay: Target mRNA reduction by RT-qPCR in HepG2.2.15 cells; format: cell-based, human; details: 10 nM siRNA
Excerpt: as §1

[8] = system: RPLP2 protein; assay: Target protein reduction by Western blot in HepG2.2.15 cells; format: cell-based, human; details: 10 nM siRNA, 72 h
Experimental: as §4

Substance	Target RNA reduction in HepG2.2.15 cells [1] [%]	CC50 [2] [nM]	Target protein reduction in HepG2.2.15 cells [3] [%]	OC43 vRNA reduction siRNA and siGRP78 [4] [%]	OC43 vRNA reduction [4] [%]	EC50 [5] [nM]	cytotoxicity / cell viability, siRNA library ([2]; up to the highest concentration tested, 80 nM)	HBeAg reduction HepG2.2.15 cells [6] [%]	HBeAg level, siRNA library ([6]; HepG2.2.15 cells, Example A6, FIG. 5A)	HBsAg level, dose response ([5]; FIG. 5A)	Target RNA reduction in HepG2.2.15 cells [7] [%]	Target protein reduction in HepG2.2.15 cells [8] [%]
31 (UUUGGCCUGGCUUGUUUGCAAUUUUGCAAACAAGCCAGGCCAAAUU; siRNA; Self-complementary hairpin strand, chemistry not given here, further chemistry not given here; listed as Homo sapiens) [compound 31]	84 ± 4	> 80	37 ± 7	82 ± 6	82 ± 4	0.012						
24 (GCAAAGAAAGAAGAAUCCGTTCGGAUUCUUCUUUCUUUGCTT; siRNA; Self-complementary hairpin strand, chemistry not given here, further chemistry not given here; listed as Homo sapiens) [compound 24]	80 ± 1	> 80	48 ± 3	94 ± 4	89 ± 8	0.359	without affecting cell viability	66 ± 2	inhibited the levels of HBsAg and HBeAg	dose-dependent reduction of HBV S-antigen (HBsAg)		
33 (UUGGUCUUUUUGACUAAACCUUUAGGUUUAGUCAAAAAGACCAAUU; siRNA; Self-complementary hairpin strand, chemistry not given here, further chemistry not given here; listed as Homo sapiens) [compound 33]	83 ± 6	> 80	28 ± 4			1.54						
45 (GGAAAAAACAUUGAAGACGUCUUGACGUCUUCAAUGUUUUUUCCUU; siRNA; Self-complementary hairpin strand, chemistry not given here, further chemistry not given here; listed as Homo sapiens) [compound 45]		> 80		89 ± 2		0.013		42 ± 5			98 ± 1	61 ± 7
35 (GGGAUUUGGCCUUUUUGAUUATTAUCAAAAAGGCCAAAUCCCAUTT; siRNA; Self-complementary hairpin strand, chemistry not given here, further chemistry not given here; listed as Homo sapiens) [compound 35]		> 80		96 ± 1	94 ± 6	0.01		69 ± 3			98 ± 0	78 ± 16
36 (CCUUUUUGAUUAAAUUCCUGCTTAGGAAUUUAAUCAAAAAGGCCTT; siRNA; Self-complementary hairpin strand, chemistry not given here, further chemistry not given here; listed as Homo sapiens) [compound 36]		> 80		87 ± 6		9.2		26 ± 5			94 ± 1	57 ± 3
37 (CUGAAUGGAAAAAACAUUGAAUUUUCAAUGUUUUUUCCAUUCAGUU; siRNA; Self-complementary hairpin strand, chemistry not given here, further chemistry not given here; listed as Homo sapiens) [compound 37]		> 80		88 ± 5	94 ± 2	0.049		53 ± 3			98 ± 1	71 ± 10
42 (CCCAGCGCCAAGGACAUCAAGUUCUUGAUGUCCUUGGCGCUGGGUU; siRNA; Self-complementary hairpin strand, chemistry not given here, further chemistry not given here; listed as Homo sapiens) [compound 42]		> 80		85 ± 7	57 ± 5	0.385		42 ± 2			95 ± 1	50 ± 4
46 (GAAAGAUGAGAAGAAGGAGGAUUUCCUCCUUCUUCUCAUCUUUCUU; siRNA; Self-complementary hairpin strand, chemistry not given here, further chemistry not given here; listed as Homo sapiens) [compound 46]		> 80		87 ± 4		1.1		44 ± 5			98 ± 1	56 ± 8
52 (CAAGGUUAUCAGUGUGCUGTTCAGCACACUGAUAACCUUGTT; siRNA; Self-complementary hairpin strand, chemistry not given here, further chemistry not given here; listed as Homo sapiens) [compound 52]		> 80		91 ± 2		0.06		54 ± 5			98 ± 1	58 ± 1
44 (UGAGCUGAAUGGAAAAAACAUUUAUGUUUUUUCCAUUCAGCUCAUU; siRNA; Self-complementary hairpin strand, chemistry not given here, further chemistry not given here; listed as Homo sapiens) [compound 44]		> 80		92 ± 2		0.084		30 ± 4			99 ± 1	59 ± 11
